In patent US5877026A, “Analgesic peptides from venom of Grammostola spatulata and use thereof” (priority 1998, dated 1999):
Where no end group is shown, it is not given here.

What was measured:
Assay type in all cases: in vivo, rat
Sprague-Dawley rats = assay: von Frey filament threshold
From the text: In this test filaments of increasing thickness are applied to the dorsal surface of a hindlimb until the rat either voluntarily removes the appendage with a forcible escape movement or vocalizes. The thickness of the filaments are arbitrarily labelled with a value which can be transformed into a grams force reading according to the following equation: [formula] Data are expressed either as absolute gram force values or a percentage of the maximum possible effect (MPE) as described in the following equation: [formula]

opioid receptors = assay: Opioid receptor testing (opioid antagonist pretreatment)
Description: Animals were then tested in the tail flick test (Example 3) and von Frey tests (Example 5).

Sprague Dawley rats [1] = settings: i.th.; two treatment arms
Sprague Dawley rats [2] = assay: Acute inflammatory pain, carrageenan paw withdrawal latency; settings: for Mean Latency Time In Seconds ± SEM, 30 minutes post treatment / Mean Latency Time In Seconds ± SEM, 60 minutes post treatment: 3 nmol intrathecal cannula; for Mean Latency Time In Seconds ± SEM, 30 minutes post treatment: given after 150 min post carrageenan; for Mean Latency Time In Seconds ± SEM, 60 minutes post treatment: predetermined cut-off value 20.8 sec
Description: Tissue injury results in inflammation and hyperalgesia (i.e. increased magnitude or duration of pain response to supra threshold noxious stimuli) at both the site of injury and at adjacent tissue sites. To assess the anti-hyperalgesic activity of GsAF II in inflammatory pain conditions, paw withdrawal latencies were determined in adult 350-400 gram male Sprague Dawley rats following the unilateral injection of carrageenan, a seaweed extract, into the hindpaw in accordance with the method of Hargreaves et al, Pain, 32:77-88, 1988. Briefly, withdrawal latencies are measured by placing the rat on a glass plate and focusing radiant heat from the underside of the plate toward the hindpaw surface. Latencies values are recorded in seconds to withdrawal of the hindpaw from the surface of the plate. Basal measurements are made prior to injection of the carrageenan (4 mg/hindpaw), followed by a measurement at 150 min post carrageenan injection to obtain the level of hyperalgesic response. Subsequent to the second measurement, GsAF II or vehicle (i.e. 0:1% BSA/saline) is administered through an indwelling intrathecal cannula positioned within the lumbar enlargement of the spinal cord. Anti-hyperalgesic activity is determined by measuring paw withdrawal latencies at various time intervals following compound administration. Concurrent with the paw withdrawal latencies, physical measurements of paw volume and paw temperature are recorded to detect anti-inflammatory and anti-pyretic activities.

[3] = 3 nmol group (n = 4), before compound administration

Tyr-Cys-Gln-Lys-Trp-Leu-Trp-Thr-Cys-Asp-Ser-Glu-Arg-Lys-Cys-Cys-Glu-Asp-Met-Val-Cys-Arg-Leu-Trp-Cys-Lys-Lys-Arg-Leu-NH2 (YCQKWLWTCDSERKCCEDMVCRLWCKKRL-NH2; cysteine pairing not given here) [GsAF I]
MPE, von Frey threshold (Sprague-Dawley rats; 18 picomole (6.6 nanograms), one hour pretreatment): 22 % MPE | MPE, von Frey threshold (Sprague-Dawley rats; 18 picomoles (66 nanograms), 30 minutes post injection): 24 % MPE | confounding side effects (Sprague-Dawley rats; 180 and 18 picomoles): No confounding side effects were present | MPE, von Frey threshold (Sprague-Dawley rats; 180 picomole, one hour pretreatment): 100 % MPE | MPE, von Frey threshold (Sprague-Dawley rats; 180 picomoles (666 nanograms), 30 minutes post injection): 93 % MPE | effect of B-funaltrexamine pretreatment on analgesic activity (opioid receptors; B-funaltrexamine 5 micrograms i.th. 18 hours prior, hot plate test or formalin test): failed to inhibit | effect of intrathecal naloxone on analgesic response (opioid receptors; naloxone 50 μg i.th. immediately prior, 180 pmoles i.th., measured 10 minutes later): failed to inhibit | effect of naloxone pretreatment on analgesic activity (opioid receptors; naloxone 10mg/kg subcutaneous 5 minutes prior, 180 pmoles i.th., measured 10 minutes later, tail flick and von Frey tests): failed to inhibit | dose response properties, morphine treatment versus saline arm (cross tolerance) (Sprague Dawley rats [1]): not significantly different

YCQKWMWTCDEERKCCEGLVCRLWCKKKIEW (cysteine pairing not given here) [GsAF II]
MPE, von Frey threshold (Sprague-Dawley rats; 2.33 nanomole (9.27 micrograms), 30 minutes post injection): 83% | rats demonstrating maximal analgesic activity (100% MPE), von Frey (Sprague-Dawley rats; 2.33 nanomole (higher dose), 30 minutes post injection): 75% | MPE, von Frey threshold (Sprague-Dawley rats; 583 picomole (2.32 micrograms), 30 minutes post injection): 48% | Mean Latency Time In Seconds ± SEM, 150 minutes post carrageenan injection (Sprague Dawley rats [2]; [3]): 3.0 ± 0.81 s | Mean Latency Time In Seconds ± SEM, base latency prior to carrageenan injection (Sprague Dawley rats [2]; [3]): 8.3 ± 1.2 s | Mean Latency Time In Seconds ± SEM, 30 minutes post treatment (Sprague Dawley rats [2]): 17.82 ± 3.78 s | Mean Latency Time In Seconds ± SEM, 30 minutes post treatment (Sprague Dawley rats [2]; listed as GsAFII): 17.82 ± 3.78 s | Mean Latency Time In Seconds ± SEM, 60 minutes post treatment (Sprague Dawley rats [2]): 20.8 s | Mean Latency Time In Seconds ± SEM, 60 minutes post treatment (Sprague Dawley rats [2]; listed as GsAFII): 20.8 ± 0.00 s | confounding motor deficits or overt negative side effects (Sprague Dawley rats [2]; 3 nmoles intrathecal): no indication | hyperalgesic, thermal-induced response (Sprague Dawley rats [2]; 3 nmoles intrathecal): completely reversed | paw temperature (Sprague Dawley rats [2]; 3 nmoles intrathecal): No significant reduction | paw volume (Sprague Dawley rats [2]; 3 nmoles intrathecal): No significant reduction
